This is an account of results in PubChem BioAssay AID624167 (Sanford-Burnham Center for Chemical Genomics, 2012).

Assay [1] has as its target PEG-3 (UniProt Q6IN02). Put plainly: inhibition of PEG-3 promoter-driven reporter – cell-based, HeLa, luciferase, CREF/GAPDH counter-screen panel, dose response (AID 624167). Particulars: HeLa PEG-Prom luciferase reporter, overnight, CREF/GAPDH counter-screens, mean of runs. A general note: The purpose of a counterscreen is to sort out artefacts and off-target activity.
In assay [2] the test system is PEG-3. Described as above. The settings on record: HeLa PEG-Prom luciferase reporter, overnight, CREF/GAPDH counter-screens.
[3] abbreviates: run 1, dose range 1, individual replicate IC50 per panel.
Setting [4] is: run 2, dose range 1, individual replicate IC50 per panel.

The source made the active and inactive calls.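 How the source made its calls: active means mean IC50 for reducing PEG3 promoter reporter signal at or below a set limit, with IC50 above the limit in both counter screens; inactive means the rest, including counter screen hits.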

A word on the IC50: it is the concentration needed to halve the response being measured.

Sequence of PEG-3 (UniProt Q6IN02) (Q6IN02 whole entry, looked up): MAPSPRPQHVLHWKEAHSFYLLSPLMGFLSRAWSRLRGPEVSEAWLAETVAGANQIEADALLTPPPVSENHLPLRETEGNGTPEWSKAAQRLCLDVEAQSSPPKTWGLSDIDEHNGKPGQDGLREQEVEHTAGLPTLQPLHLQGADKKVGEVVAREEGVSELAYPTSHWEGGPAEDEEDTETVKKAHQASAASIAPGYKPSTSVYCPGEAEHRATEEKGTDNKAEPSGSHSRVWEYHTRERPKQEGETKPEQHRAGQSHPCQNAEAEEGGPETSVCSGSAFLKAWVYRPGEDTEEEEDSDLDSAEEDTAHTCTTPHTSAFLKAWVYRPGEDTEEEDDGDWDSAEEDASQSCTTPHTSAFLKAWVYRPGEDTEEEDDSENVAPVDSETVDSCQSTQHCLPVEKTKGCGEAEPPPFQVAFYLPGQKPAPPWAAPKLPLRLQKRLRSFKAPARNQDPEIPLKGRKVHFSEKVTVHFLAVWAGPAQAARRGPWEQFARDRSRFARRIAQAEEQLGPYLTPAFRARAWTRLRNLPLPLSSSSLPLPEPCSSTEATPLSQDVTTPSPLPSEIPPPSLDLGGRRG

As to `COc1ccc(-c2nsc3c(N4CCCCC4C)ncnc23)cc1` (stereo not drawn), the IC50 on PEG-3 [1] is 15.7 µM; in the assay with PEG-3 [2] (setting [3]), 17.5 µM; with PEG-3 [2] (setting [4]) it was 14 µM.

`O=C(/C=C/c1ccccc1)NC(NC(=S)Nc1cccc(Cl)c1)C(Cl)(Cl)Cl` (stereo not drawn): the IC50 on PEG-3 [1] is 14.3 µM; with PEG-3 [2] (setting [3]), 18 µM; in the assay with PEG-3 [2] (setting [4]) it was 10.6 µM.

Consider `O=C1CSC(=S)N1Cc1cccnc1`, for which the 50% inhibitory concentration (IC50) on PEG-3 [1] was 17.9 µM; with PEG-3 [2] (setting [3]) it was 28.3 µM; with PEG-3 [2] (setting [4]) it was 7.51 µM.

Turning to `CC1(C)Cc2c(C#N)c(N3CCNCC3)nc(-c3ccco3)c2CS1`, the IC50 is 19.9 µM on PEG-3 [1], 22.7 µM in the assay on PEG-3 [2] (setting [3]) and 17.2 µM with PEG-3 [2] (setting [4]).

In the case of `CCC1CCCCN1S(=O)(=O)c1ccc(C(=O)N(CCCN(C)C)c2nc3cc4c(cc3s2)OCO4)cc1` (stereo not drawn), at PEG-3 [1], the IC50 result was “inactive”. Further, the IC50 came to 21.9 µM in the assay on PEG-3 [2] (setting [3]) and 49.9 µM with PEG-3 [2] (setting [4]).

In the case of `COc1cccc(/C=C2/Sc3ccc(C(=O)NCCCN4CCCC4)cc3NC2=O)c1`, the IC50 was 17.1 µM on PEG-3 [1], 21.4 µM with PEG-3 [2] (setting [3]) and 12.8 µM in the assay with PEG-3 [2] (setting [4]).

Consider `CCCCN(C)C(=O)c1ccc(Nc2nc(C(N)CCc3ccccc3)cs2)nc1` (stereo not drawn), for which the IC50 result on PEG-3 [1] is “inactive”. For the same molecule, the IC50 in the assay on PEG-3 [2] (setting [3]) amounted to 27.6 µM; in the assay on PEG-3 [2] (setting [4]), 15.4 µM.

In the case of `CS(=O)(=O)c1ccc2nc(NC(=O)CCS(=O)(=O)c3ccccc3)sc2c1`, the IC50 entry on PEG-3 [1] is “inactive”. Besides, the IC50 with PEG-3 [2] (setting [3]) is > 100 µM; with PEG-3 [2] (setting [4]), 18.9 µM.

As for `CCCCNC(=O)C(C)N(CCN(C)C)C(=O)CCCCCN1C(=O)NC(c2ccc(Cl)cc2)C(C(=O)OCc2ccccc2)=C1C` (stereo not drawn), the IC50 is 13.2 µM at PEG-3 [1], 16.2 µM in the assay with PEG-3 [2] (setting [3]) and 10.1 µM in the assay with PEG-3 [2] (setting [4]).

For `CN(C)c1ccc(N=Nc2nc3ccccc3n2C)cc1`, the IC50 entry on PEG-3 [1] was “inactive”. Further, the figures for the IC50 in the assay on PEG-3 [2] (setting [3]) and in the assay with PEG-3 [2] (setting [4]) were 20.6 µM and < 100 µM, respectively.

Take `O=S(=O)(NC1CC(NS(=O)(=O)OCC(Cl)(Cl)Cl)C2CCCCC12)OCC(Cl)(Cl)Cl` (stereo not drawn): the results for the half-inhibitory concentration (IC50) at PEG-3 [1], with PEG-3 [2] (setting [3]) and in the assay with PEG-3 [2] (setting [4]) were 11.4 µM, 10.8 µM and 11.9 µM, respectively.

For `O=C(NC1CCCCC1)Sc1ccc(Cl)cc1`, the IC50 result at PEG-3 [1] was “inactive”. In addition, the IC50 worked out at 30.7 µM with PEG-3 [2] (setting [3]) and 19.3 µM with PEG-3 [2] (setting [4]).

Regarding `COc1cc(C=NO)nc(-c2ccccn2)c1`, the IC50 was 0.52 µM on PEG-3 [1], 0.84 µM in the assay on PEG-3 [2] (setting [3]) and < 0.2 µM in the assay on PEG-3 [2] (setting [4]).

For the molecule `COc1ccccc1CN(C)C(=O)c1cc(-c2cc(OC)c(OC)c(OC)c2)nc2ccccc12`, the IC50 entry on PEG-3 [1] was “inactive”. Further, the IC50 in the assay with PEG-3 [2] (setting [3]) is 19.2 µM; with PEG-3 [2] (setting [4]), 40 µM.

In the case of `CCCN1C/C(=C/c2cccc([N+](=O)[O-])c2)C(=O)/C(=C/c2cccc([N+](=O)[O-])c2)C1`, the IC50 result at PEG-3 [1] is “inactive”. The IC50 in the assay with PEG-3 [2] (setting [3]) was 6.69 µM; in the assay with PEG-3 [2] (setting [4]), > 100 µM.

In the case of `COc1ccccc1N(C(=O)CCl)c1cn(C(C)=O)c2ccccc12`, at PEG-3 [1], the IC50 entry is “inactive”. In addition, the IC50 was found to be 24.1 µM in the assay with PEG-3 [2] (setting [3]) and 26.5 µM with PEG-3 [2] (setting [4]).

On to `N/C(=N\OC(=O)c1ccccc1)C(Cc1ccccc1)C(=O)NOC(=O)c1ccccc1` (stereo not drawn), for which the IC50 at PEG-3 [1] was 13 µM; in the assay with PEG-3 [2] (setting [3]) it was 15 µM; in the assay on PEG-3 [2] (setting [4]), 11 µM.

On to `Cc1ccc(-c2cc(-c3ccc(C)cc3)[n+](-c3ccccc3)c(-c3ccc(C)cc3)c2)cc1`, for which the IC50 at PEG-3 [1] is > 100 µM (inactive); with PEG-3 [2] (setting [3]), > 100 µM; with PEG-3 [2] (setting [4]), > 100 µM.

As for `CC(=O)N1CCN(c2cc(-c3ccccc3)nc3cc(-c4cccc(Cl)c4)nn23)CC1`, the IC50 result on PEG-3 [1] is “inactive”. Moreover, the IC50 in the assay with PEG-3 [2] (setting [3]) was 23.8 µM; with PEG-3 [2] (setting [4]) it was 18.3 µM.

Consider `O=Cc1cn(Cc2ccc(F)cc2)c2ccccc12`, for which the half-inhibitory concentration (IC50) on PEG-3 [1] is 18.3 µM; with PEG-3 [2] (setting [3]) it was 12.5 µM; with PEG-3 [2] (setting [4]) it was 24.1 µM.

With `CN1Cc2c(N3CCOCC3)nc3sc(C(=O)c4ccc(Br)cc4)c(N)c3c2CC1(C)C`, the IC50 at PEG-3 [1] is 15.2 µM; in the assay with PEG-3 [2] (setting [3]), 18.8 µM; with PEG-3 [2] (setting [4]) it was 11.6 µM.

Consider `COc1ccc(OC)c(-c2cc(C(=O)N3CCN(c4ncccn4)CC3)c3ccccc3n2)c1`, for which the IC50 entry at PEG-3 [1] was “inactive”. Besides, the IC50 in the assay with PEG-3 [2] (setting [3]) is 35 µM; in the assay on PEG-3 [2] (setting [4]), > 100 µM.

With `COc1ccccc1NC(=O)c1cc(-c2cc(OC)c(OC)c(OC)c2)nc2ccccc12`, the half-inhibitory concentration (IC50) on PEG-3 [1] was 15.2 µM; in the assay with PEG-3 [2] (setting [3]), 27.3 µM; in the assay with PEG-3 [2] (setting [4]), 3.16 µM.

As to `CC1(C)C(=O)C=CC(=O)C(C)(C)C(=O)C=CC(=O)C(C)(C)C2=CC=C(O2)C(C)(C)C(=O)C=CC1=O`, the figures for the IC50 on PEG-3 [1], with PEG-3 [2] (setting [3]) and in the assay with PEG-3 [2] (setting [4]) were 14.2 µM, 16.6 µM and 11.8 µM, respectively.

Take `COc1ccc(-c2cc(C(=O)N3CCN(c4ncccn4)CC3)c3ccccc3n2)c(OC)c1`: the IC50 result on PEG-3 [1] was “inactive”. The IC50 came to 39.3 µM in the assay on PEG-3 [2] (setting [3]) and 98.5 µM in the assay with PEG-3 [2] (setting [4]).

Consider `C=CCN=C1NN=C(c2cc(C)n(CC=C)c2C)CS1`, for which the values for the IC50 at PEG-3 [1], with PEG-3 [2] (setting [3]) and with PEG-3 [2] (setting [4]) were 17.4 µM, 11.5 µM and 23.3 µM, respectively.
